From US20090105245A1, “METHODS FOR TREATING MACULAR EDEMA AND OCULAR ANGIOGENESIS USING AN ANTI-INFLAMMATORY AGENT AND A RECEPTOR TYROSINE KINASE INHIBITOR” (priority 2006, published 2009)
Entries after “also recorded” stand apart in the source; their conditions may differ.

What was measured:
[1] = test system: laser-induced choroidal neovascularization in the mouse; assay: Mouse laser-induced CNV, topical NSAID drops; assay type: in vivo; settings: for CNV lesions at Bruch's membrane rupture sites vs vehicle: follow-up experiment
Protocol: METHODS: Choroidal neovascularization was generated by modification of a previously described technique [Tobe, 1998 #448]. Briefly, 4 to 5 week old female C57BL/6J mice were anesthetized with ketamine hydrochloride (100 mg/kg body weight) and the pupils were dilated with 1% tropicamide. Three burns of 532 nm diode laser photocoagulation (75 μm spot size, 0.1 seconds duration, 120 mW) were delivered to each retina using the slit lamp delivery system of an OcuLight GL Photocoagulator (Iridex, Mountain View, Calif.) and a hand held cover slide as a contact lens. Burns were performed in the 9, 12, and 3 o'clock positions of the posterior pole of the retina. Production of a bubble at the time of laser, which indicates rupture of Bruch's membrane, is an important factor in obtaining CNV [Tobe, 1998 #448], so only burns in which a bubble was produced were included in the study. […] In some experiments, both eyes were treated with drug and these mice were compared to littermates in which both eyes were treated with vehicle. In other experiments, one eye was treated with drug and the fellow eye was treated with vehicle. Eyes were rapidly dissected for choroidal flat mounts or frozen in optimum cutting temperature embedding compound (OCT; Miles Diagnostics, Elkhart, Ind.).
The sizes of CNV lesions were measured in choroidal flat mounts (Edelman and Castro, 2000). Mice used for the flat mount technique were anesthetized and perfused with 1 ml of phosphate-buffered saline containing 50 mg/ml of fluorescein-labeled dextran (2×10^6 average mw, Sigma, St. Louis, Mo.) as previously described (Tobe et al., 1998a). The eyes were removed and fixed for 1 hour in 10% phosphate-buffered formalin. The cornea and lens were removed and the entire retina was carefully dissected from the eyecup. Radial cuts (4-7, average 5) were made from the edge to the equator and the eyecup was flat mounted in Aquamount with the sclera facing down. Flat mounts were examined by fluorescence microscopy on an Axioskop microscope (Zeiss, Thornwood, N.Y.) and images were digitized using a 3 color CCD video camera (IK-TU40A, Toshiba, Tokyo, Japan) and a frame grabber. Image-Pro Plus software (Media Cybernetics, Silver Spring, Md.) was used to measure the total area of hyperfluorescence associated with each burn, corresponding to the total fibrovascular scar. The areas within each eye were averaged to give one experimental value per eye for plotting the areas in the figures.
In some mice, the eyes were rapidly removed and frozen in optimum cutting temperature embedding compound (OCT; Miles Diagnostics, Elkhart, Ind.). Ten μm frozen sections were cut through entire lesions and the sections were histochemically stained with biotinylated Griffonia simplicifolia lectin B4 (GSA, Vector Laboratories, Burlingame, Calif.) which selectively binds to vascular cells. Slides were incubated in methanol/H2O2 for 10 minutes at 4° C., washed with 0.05 M Tris-buffered saline, pH 7.6 (TBS), and incubated for 30 minutes in 10% normal porcine serum. Slides were incubated 2 hours at room temperature with biotinylated GSA and after rinsing with 0.05M TBS, they were incubated with avidin coupled to peroxidase (Vector Laboratories) for 45 minutes at room temperature. The slides were developed with HistoMark Red (Kirkegaard and Perry, Cabin John, Md.) to give a red reaction product and counter stained with Contrast Blue (Kirkegaard and Perry).

[2] = test system: VEGF mRNA; assay: Semi-quantitative RT-PCR of retinal VEGF mRNA in mice with ischemic retinopathy; assay type: in vivo, mouse; settings: P12-P17
Protocol: Mice with ischemic retinopathy were treated with 0.1% or 0.5% Nepafenac drops or vehicle drops four times a day between P12 and P17 and then sacrificed and retinal RNA was isolated using the guanidine isothiocyanate method as described by Chomczynski and Sacchi [Chomczynski, 1987 #30]. Reverse transcription was carried out with 0.5 μg of total RNA, reverse transcriptase (SuperScript II, Life Technologies, Gaithersburg, Md.), and 5.0 μM oligo d(T) primer. Aliquots of the cDNAs were used for PCR amplification with primers specific for VEGF, (5′-TTACTGCTGTACCTCCACC-3′) and (5′-ACAGGACGGCTTGAAGATG-3′). Titrations were performed to insure that PCR reactions were carried out in the linear range of amplification. Mouse S16 ribosomal protein primers (5′-[…]-3′ and 5′-[…]-3′) were used to provide an internal control for the amount of template in the PCR reactions.

[3] = test system: retinal vasculature and neuronal function in the STZ-diabetic rat; assay: STZ-diabetic rat, topical eyedrops for 2 months or 9 months; assay type: in vivo
Protocol: Methods. Streptozotocin (STZ)-induced diabetic rats were assigned to 3 groups (untreated control, Nepafenac eyedrops, and vehicle eyedrops) for comparison to nondiabetic controls. Eyedrops were administered in both eyes 4 times/day using both subacute (2 mos) or chronic dosing paradigms (9 mos). During the 2 month study, prostaglandin E2 (PGE2), cyclooxygenase (COX)-2, and VEGF were measured by immunoassay, superoxide generation was measured by bioluminescence, activities of caspases 3 and 6 were measured fluorimetrically, and nitric oxide (NO) was estimated from levels of nitrite plus nitrate. Moreover, retinal leukostasis was quantified after intravenous perfusion with FITC-concanavalin A. During the 9-month study, vascular lesions associated with diabetic retinopathy were quantitated after isolation of the retinal vasculature by the trypsin digest technique, and loss of cells in the ganglion cell layer was evaluated in retinal cross-sections. In the chronic dosing study, retinal function also was assessed by measuring electroretinograms (ERGs) under dark and light adapted conditions to evaluate rod and cone pathways, respectively. The impact of topical ocular administration on corneal protease activity was assessed with MMP mRNA analysis and zymography. The signals were imported into Matlab™ (Mathworks Inc.) for further processing and the oscillatory potentials (OP's) were isolated using a 9 pole Butterworth filter with 34 Hz cutoff frequency (unity gain above 40 Hz and >12 dB attenuation 0 to 30 Hz). To simplify the analysis of OP timing the summed latency was calculated for OP's 1-4 similar to Hancock and Kraft, where TTP=(t1+t2+t3+t4) and tx=the time to peak of OPx.

[4] = test system: preretinal neovascularization in the mouse model of oxygen-induced retinopathy; assay: Mouse model of oxygen-induced ischemic retinopathy, topical drops; assay type: in vivo; settings: for retinal (preretinal) neovascularization vs vehicle: P12-P17
Protocol: METHODS: Ischemic retinopathy was produced in C57BL/6J mice by a method described by Smith et al [Smith, 1994 #50]. Seven-day-old (P7) mice and their mothers were placed in an airtight incubator and exposed to an atmosphere of 75±3% oxygen for 5 days. Incubator temperature was maintained at 23±2° C., and oxygen was measured every 8 hours with an oxygen analyzer. After 5 days, the mice were removed from the incubator, placed in room air, and drug treatment was begun. Mice were given one drop four times a day in masked fashion. At P17, after 5 days of treatment, mice were sacrificed, eyes were rapidly removed and frozen in OCT.
Ocular frozen sections (10 μm) were histochemically stained with GSA as described above except that diaminobenzidine was used to give a brown reaction product. Slides were counterstained with eosin, which stains the internal limiting membrane and mounted with Cytoseal. To perform quantitative assessments, 10 μm serial sections were cut through the entire eye starting with sections that included the iris root on one side of the eye and proceeding to the iris root on the other side. Every tenth section, roughly 100 μm apart, were stained with GSA, examined with an Axioskop microscope, and images were digitized using a 3 CCD color video camera and a frame grabber. Image-Pro Plus software was used to delineate GSA-stained cells on the surface of the retina and their area was measured. For plotting the area measurements for the figure, the mean of the measurements from each eye was used as a single experimental value.

[5] = test system: visual acuity; settings: Phase III, at 24 months, up to; cited from earlier work
[6] = 0.1% drops 4 times a day for 14 days
[7] = eyedrops 4 times/day, 2 months of diabetes

Question: Which “size of CNV lesions vs vehicle” value ([1]; 0.5% drops 4 times a day for 1 week) does the source give for `O=C(c1ccccc1)c1ccc2n1CCC2C(=O)O` (centres unmarked) [ketorolac tromethamine] here?
Answer: no difference in the size of CNV lesions between the two groups

Question: And the survival ([1]; 0.5% drops or vehicle 4 times a day for 1 week)?
Answer: All mice survived

Question: What about the “CNV vs vehicle in surviving mice” value ([1]; 0.5% drops, 2 weeks, numbers insufficient for statistics) of the same molecule?
Answer: did not appear to have less CNV than mice treated with vehicle

Question: What about the mortality ([1]; 0.5% drops, two weeks) of the same molecule?
Answer: high mortality

Question: For `O=C(O)Cc1ccccc1Nc1c(Cl)cccc1Cl` [diclofenac], which “CNV lesions at Bruch's membrane rupture sites vs vehicle” value [1, 6] is on record?
Answer: no difference from vehicle-treated eyes

Question: Which “CNV lesions at Bruch's membrane rupture sites vs vehicle” value ([1]; 0.03% drops 4 times a day for 14 days) does the source give for `NC(=O)Cc1cccc(C(=O)c2ccccc2)c1N` [nepafenac, 2-Amino-3-benzoyl-phenylacetamide] here?
Answer: significantly smaller areas of CNV at Bruch's membrane rupture sites than did eyes treated with vehicle

Question: And the “CNV lesions at Bruch's membrane rupture sites vs vehicle” value ([1]; 0.03% drops 4 times a day for 14 days, listed as nepafanac)?
Answer: significantly smaller than those in eyes treated with vehicle

Question: What about the “CNV lesions at Bruch's membrane rupture sites vs vehicle” value [1, 6] of the same molecule?
Answer: significantly smaller areas of CNV at Bruch's membrane rupture sites than did eyes treated with vehicle

Question: What about the “CNV lesions at Bruch's membrane rupture sites vs vehicle” value ([1]; 0.1% drops 4 times a day for 14 days, listed as nepafanac) of the same molecule?
Answer: significantly smaller than those in eyes treated with vehicle

Question: What about the “CNV area vs vehicle” value ([1]; 0.1% drops 4 times a day, 2 weeks, first experiment) of the same molecule?
Answer: significantly smaller CNV lesions than treatment with vehicle

Question: What about the “area of CNV in treated eye compared to vehicle-treated fellow eye” value ([1]; 0.1% drops in one eye, vehicle in fellow eye) of the same molecule?
Answer: significantly less

Question: What about the “CNV area vs vehicle” value ([1]; 0.5% drops 4 times a day, 2 weeks) of the same molecule?
Answer: significantly smaller CNV lesions than treatment with vehicle

Question: What about the “inhibition of laser-induced choroidal neovascularization” value ([1]; topical, mouse (FIG. 10)) of the same molecule?
Answer: inhibits laser-induced choroidal neovascularization

Question: And the “retinal VEGF mRNA vs vehicle” value ([2]; 0.1% drops 4 times a day)?
Answer: less VEGF mRNA than retinas from eyes treated with vehicle

Question: What about the “retinal VEGF mRNA vs vehicle” value ([2]; 0.5% drops 4 times a day) of the same molecule?
Answer: less VEGF mRNA than retinas from eyes treated with vehicle

Question: What about the “protection against OP (oscillatory potential) delays, ERG” value ([3]; 0.3% topical, chronic dosing) of the same molecule?
Answer: completely protected

Question: And the “inhibition of morphologic vascular changes” value ([3]; 9 months of diabetes, STZ-diabetic rat (FIG. 12))?
Answer: inhibits morphologic vascular changes present at 9 months of diabetes

Question: And the “diabetes-induced activation of caspases 3 and 6 in retina” value [3, 7]?
Answer: partially inhibited

Question: What about the “retinal VEGF or NO levels” value [3, 7] of the same molecule?
Answer: no effect

Question: And the “TUNEL-positive capillary cells, acellular capillaries and pericyte ghosts” value ([3]; eyedrops 4 times/day, chronic dosing (9 months))?
Answer: significantly inhibited all of these retinal abnormalities

Question: And the “corneal protease activity vs vehicle” value ([3]; topical, after 9 months of diabetes)?
Answer: No significant changes

Question: What about the “OP summed latency (TTP) vs nondiabetic control animals” value ([3]; topical, chronic dosing) of the same molecule?
Answer: statistically no different than nondiabetic control animals

Question: And the “retinal (preretinal) neovascularization vs vehicle” value ([4]; 0.1% drops 4 times a day)?
Answer: significantly less retinal neovascularization; also recorded: significantly less preretinal NV

Question: And the “retinal (preretinal) neovascularization vs vehicle” value ([4]; 0.5% drops 4 times a day)?
Answer: significantly less retinal neovascularization; also recorded: significantly less preretinal NV

Question: What about the “inhibition of preretinal neovascularization” value ([4]; topical, mouse OIR (FIG. 11)) of the same molecule?
Answer: inhibits preretinal neovascularization

B1: ranibizumab (antibody, chains of the INN, looked up, V domains shown)
VH: EVQLVESGGGLVQPGGSLRLSCAASGYDFTHYGMNWVRQAPGKGLEWVGWINTYTGEPTYAADFKRRFTFSLDTSKSTAYLQMNSLRAEDTAVYYCAKYPYYYGTSHWYFDVWGQGTLVTVSS
VL: DIQLTQSPSSLSASVGDRVTITCSASQDISNYLNWYQQKPGKAPKVLIYFTSSLHSGVPSRFSGSGSGTDFTLTISSLQPEDFATYYCQQYSTVPWTFGQGTKVEIK
modifications: Fab
Question: Which “patients with improved visual acuity” value [5] does the source give for B1 here?
Answer: 35-40%
